The numbers were not newly measured in patent US8642081B2, “Chewable, suckable and swallowable tablet containing a calcium-containing compound as an active substance” (Takeda Nycomed AS, priority 2004, dated 2014), which cites them from elsewhere.

This data set concerns treated patients. The conditions noted are these: annual injections of 150.000-300.000 IU.

vitamin D: the overall fracture rate entry is listed as “significant reduction” and the “rate of hip fracture” value is “not”.
